Source: patent publication US20100041892A1, “Therapeutic agent for diabetes” (priority 2005, published 2010)
Where a name gives a salt, the structure may show the parent alone.

SMILES	melting point
CCCCCS(=O)(=O)NC(=O)/C=C/c1ccc(OCCO[Si](C(C)C)(C(C)C)C(C)C)cc1Oc1ncc(C(F)(F)F)cc1Cl	106 to 108 °C
CCCCCS(=O)(=O)NC(=O)/C=C/c1ccc(OCC(C)(C)O)cc1Oc1ncc(C(F)(F)F)cc1Cl (as salt: acetate) (hydrate or solvate) [Example 250, (2E)-3-[2-{[3-chloro-5-(trifluoromethyl)pyridin-2-yl]oxy}-4-(2-hydroxy-2-methylpropoxy)phenyl]-N-(pentylsulfonyl)acrylamide]	98 to 100 °C
CCCCCS(=O)(=O)NC(=O)/C=C/c1ccc(OCCO[Si](c2ccccc2)(c2ccccc2)C(C)(C)C)cc1Oc1ncc(C(F)(F)F)cc1Cl (hydrate or solvate)	108 to 108.5 °C
CCCCS(=O)(=O)NC(=O)OCCCc1ccc(OCCOC)cc1Oc1ncc(C(F)(F)F)cc1Cl.O (hydrate or solvate)	94 to 96 °C
COCCOc1ccc(CCCOC(=O)NS(=O)(=O)c2ccc(C)cc2)c(Oc2ncc(C(F)(F)F)cc2Cl)c1.O (hydrate or solvate) [Example 30, 3-[2-{[3-chloro-5-(trifluoromethyl)pyridin-2-yl]oxy}-4-(2-methoxyethoxy)phenyl]propyl [(4-methylphenyl)sulfonyl]carbamate monohydrate]	118 to 120 °C
COCCOc1ccc(/C=C/COC(=O)NS(=O)(=O)c2ccc(Cl)cc2)c(Oc2ncc(C(F)(F)F)cc2Cl)c1.O.O (hydrate or solvate) [Example 37, (2E)-3-[2-{[3-chloro-5-(trifluoromethyl)pyridin-2-yl]oxy}-4-(2-methoxyethoxy)phenyl]-2-propen-1-yl [(4-chlorophenyl)sulfonyl]carbamate dihydrate]	174.5 °C (dec.)
CC(C)Oc1ccc(CCC(=O)NS(=O)(=O)c2ccccc2)c(Oc2ncc(C(F)(F)F)cc2Cl)c1 [Example 4, 3-(2-{[3-chloro-5-(trifluoromethyl)pyridin-2-yl]oxy}-4-isopropoxyphenyl)-N-(phenylsulfonyl)propanamide]	129 to 129.5 °C
COCCOc1ccc(CCC(=O)NS(=O)(=O)c2ccc(OC)cc2)c(Oc2ncc(C(F)(F)F)cc2Cl)c1 [Example 7, 3-[2-{[3-chloro-5-(trifluoromethyl)pyridin-2-yl]oxy}-4-(2-methoxyethoxy)phenyl]-N-[(4-methoxyphenyl)sulfonyl]propanamide]	118 to 120 °C
COCCOc1ccc(CCC(=O)NS(=O)(=O)c2ccc(F)cc2)c(Oc2ncc(C(F)(F)F)cc2Cl)c1 [Example 11, 3-[2-{[3-chloro-5-(trifluoromethyl)pyridin-2-yl]oxy}-4-(2-methoxyethoxy)phenyl]-N-[(4-fluorophenyl)sulfonyl]propanamide]	136 to 138 °C
COCCOc1ccc(CCCNS(C)(=O)=O)c(Oc2ncc(C(F)(F)F)cc2Cl)c1 [Example 15, N-{3-[2-{[3-chloro-5-(trifluoromethyl)pyridin-2-yl]oxy}-4-(2-methoxyethoxy)phenyl]propyl}methanesulfonamide]	89 to 90 °C
COCCOc1ccc(CCCNS(=O)(=O)c2ccccc2)c(Oc2ncc(C(F)(F)F)cc2Cl)c1 [Example 16, N-{3-[2-{[3-chloro-5-(trifluoromethyl)pyridin-2-yl]oxy}-4-(2-methoxyethoxy)phenyl]propyl}benzenesulfonamide]	94 to 95 °C
COCCOc1ccc(CCCNS(=O)(=O)Cc2ccccc2)c(Oc2ncc(C(F)(F)F)cc2Cl)c1 [Example 19, N-{3-[2-{[3-chloro-5-(trifluoromethyl)pyridin-2-yl]oxy}-4-(2-methoxyethoxy)phenyl]propyl}-1-phenylmethanesulfonamide]	97 to 100 °C
COCCOc1ccc(CCCNS(=O)(=O)CCCc2ccccc2)c(Oc2ncc(C(F)(F)F)cc2Cl)c1 [Example 21, N-{3-[2-{[3-chloro-5-(trifluoromethyl)pyridin-2-yl]oxy}-4-(2-methoxyethoxy)phenyl]propyl}-3-phenylpropane-1-sulfonamide]	101.8 to 102 °C
COCCOc1ccc(CCCNS(=O)(=O)c2ccc(Cl)cc2)c(Oc2ncc(C(F)(F)F)cc2Cl)c1 [Example 22, 4-chloro-N-{3-[2-{[3-chloro-5-(trifluoromethyl)pyridin-2-yl]oxy}-4-(2-methoxyethoxy)phenyl]propyl}benzenesulfonamide]	111 to 113 °C
COCCOc1ccc(CCCNS(=O)(=O)c2cccc(Cl)c2)c(Oc2ncc(C(F)(F)F)cc2Cl)c1 [Example 24, 3-chloro-N-{3-[2-{[3-chloro-5-(trifluoromethyl)pyridin-2-yl]oxy}-4-(2-methoxyethoxy)phenyl]propyl}benzenesulfonamide]	110 to 114 °C
CCCCCS(=O)(=O)NC/C=C/c1ccc(OCCOC)cc1Oc1ncc(C(F)(F)F)cc1Cl [Example 27, N-{(2E)-3-[2-{[3-chloro-5-(trifluoromethyl)pyridin-2-yl]oxy}-4-(2-methoxyethoxy)phenyl]-2-propen-1-yl}pentane-1-sulfonamide]	106 to 106.5 °C

SMILES	melting point
COCCOc1ccc(CCCNS(=O)(=O)c2ccccc2[N+](=O)[O-])c(Oc2ncc(C(F)(F)F)cc2Cl)c1 [Example 29, N-{3-[2-{[3-chloro-5-(trifluoromethyl)pyridin-2-yl]oxy}-4-(2-methoxyethoxy)phenyl]propyl}-2-nitrobenzenesulfonamide]	125.5 to 126 °C
CC(C)Oc1cc(CCCNC(=O)NS(=O)(=O)c2ccccc2)n(Cc2ccc(Cl)cc2Cl)n1 [Example 39, N-[({3-[1-(2,4-dichlorobenzyl)-3-isopropoxy-1H-pyrazol-5-yl]propyl}amino)carbonyl]benzenesulfonamide]	149 °C
CCCCCS(=O)(=O)NCC(C)Cc1ccc(OCCOC)cc1Oc1ncc(C(F)(F)F)cc1Cl (centres unmarked) [Example 41, N-{3-[2-{[3-chloro-5-(trifluoromethyl)pyridin-2-yl]oxy}-4-(2-methoxyethoxy)phenyl]-2-methylpropyl}pentane-1-sulfonamide]	80 to 82 °C
CCCCCS(=O)(=O)NC(=O)CCc1ccc(OC(C)C)cc1OCc1ccc(Cl)cc1Cl [Example 42, 3-{2-[(2,4-dichlorobenzyl)oxy]-4-isopropoxyphenyl}-N-(pentylsulfonyl)propanamide]	120 to 120.5 °C
COCCOc1ccc(CCC(=O)NS(=O)(=O)CCC(C)C)c(Oc2ncc(C(F)(F)F)cc2Cl)c1 [Example 43, 3-[2-{[3-chloro-5-(trifluoromethyl)pyridin-2-yl]oxy}-4-(2-methoxyethoxy)phenyl]-N-[(3-methylbutyl)sulfonyl]propanamide]	130 to 132 °C
CCN(CC)C(=O)COc1ccc(CCC(=O)NS(=O)(=O)CCC(C)C)c(Oc2ncc(C(F)(F)F)cc2Cl)c1 [Example 45, 3-{2-{[3-chloro-5-(trifluoromethyl)pyridin-2-yl]oxy}-4-[2-(diethylamino)-2-oxoethoxy]phenyl}-N-[(3-methylbutyl)sulfonyl]propanamide]	123 to 125 °C
COCCOc1ccc(CCCOC(=O)N2CCOCC2)c(Oc2ncc(C(F)(F)F)cc2Cl)c1 [Example 48, 3-[2-{[3-chloro-5-(trifluoromethyl)pyridin-2-yl]oxy}-4-(2-methoxyethoxy)phenyl]propyl morpholine-4-carboxylate]	82.3 to 82.4 °C
CCCCNC(=O)OCCCc1ccc(OCCOC)cc1Oc1ncc(C(F)(F)F)cc1Cl [Example 49, 3-[2-{[3-chloro-5-(trifluoromethyl)pyridin-2-yl]oxy}-4-(2-methoxyethoxy)phenyl]propyl butylcarbamate]	91.7 to 91.8 °C
CCCCN(C)C(=O)OCCCc1ccc(OCCOC)cc1Oc1ncc(C(F)(F)F)cc1Cl [Example 50, 3-[2-{[3-chloro-5-(trifluoromethyl)pyridin-2-yl]oxy}-4-(2-methoxyethoxy)phenyl]propyl butyl(methyl)carbamate]	54 to 55.2 °C
CCN(CC)C(=O)COc1ccc(CCCOC(=O)NCC2CC2)c(Oc2ncc(C(F)(F)F)cc2Cl)c1 [Example 52, 3-{2-{[3-chloro-5-(trifluoromethyl)pyridin-2-yl]oxy}-4-[2-(diethylamino)-2-oxoethoxy]phenyl}propyl (cyclopropylmethyl)carbamate]	94 to 94.5 °C
CCOC(=O)COc1ccc(CCCOC(=O)NCC2CC2)c(Oc2ncc(C(F)(F)F)cc2Cl)c1 [Example 53, ethyl {3-{[3-chloro-5-(trifluoromethyl)-pyridin-2-yl]oxy}-4-[3-({[(cyclopropylmethyl)amino]carbonyl}-oxy)propyl]phenoxy}acetate]	112.8 to 113 °C
COCCCNC(=O)OCCCc1ccc(OCCOC)cc1Oc1ncc(C(F)(F)F)cc1Cl [Example 55, 3-[2-{[3-chloro-5-(trifluoromethyl)pyridin-2-yl]oxy}-4-(2-methoxyethoxy)phenyl]propyl (3-methoxypropyl)carbamate]	83.5 to 85 °C
CCOCCNC(=O)OCCCc1ccc(OCCOC)cc1Oc1ncc(C(F)(F)F)cc1Cl [Example 56, 3-[2-{[3-chloro-5-(trifluoromethyl)pyridin-2-yl]oxy}-4-(2-methoxyethoxy)phenyl]propyl (2-ethoxyethyl)carbamate]	66 to 68 °C
COCCCS(=O)(=O)NC(=O)/C=C/c1ccc(OC(C)C)cc1Oc1ncc(C(F)(F)F)cc1Cl [Example 57, (2E)-3-[2-{[3-chloro-5-(trifluoromethyl)pyridin-2-yl]oxy}-4-isopropoxyphenyl]-N-[(3-methoxypropyl)sulfonyl]acrylamide]	129.5 to 130 °C
COCCOc1ccc(COC(=O)NS(=O)(=O)CCC(C)C)c(Oc2ncc(C(F)(F)F)cc2Cl)c1 [Example 59, 2-{[3-chloro-5-(trifluoromethyl)pyridin-2-yl]oxy}-4-(2-methoxyethoxy)benzyl [(3-methylbutyl)sulfonyl]carbamate]	122 to 124 °C
COCCOc1ccc(COC(=O)NS(=O)(=O)NCC(C)C)c(Oc2ncc(C(F)(F)F)cc2Cl)c1 [Example 60, 2-{[3-chloro-5-(trifluoromethyl)pyridin-2-yl]oxy}-4-(2-methoxyethoxy)benzyl [(isobutylamino)sulfonyl]carbamate]	160 to 161 °C
